Results from BindingDB's records for doi:10.1016/S0893-133X(01)00298-6 (Eli Lilly, 2001).
Where “and” joins values, the source holds several entries; their conditions need not be identical. Equal entries are not always repeated.

Assays:
[1] = target: Gamma-aminobutyric acid receptor subunit alpha-1 (Rattus norvegicus, UniProt P62813)
[2] = target: Kappa-type opioid receptor (Cavia porcellus, UniProt P41144)
[3] = target: Glutamate receptor 3 (Rattus norvegicus, UniProt P19492)
[4] = target: Alpha-bungarotoxin (Bungarus multicinctus, UniProt P60615)
[5] = target: Sigma non-opioid intracellular receptor 1 (Cavia porcellus, UniProt Q60492)
[6] = target: Gastrin/cholecystokinin type B receptor (Mus musculus, UniProt P56481)
[7] = target: Delta-type opioid receptor (Rattus norvegicus, UniProt P33533)
[8] = target: D(1A) dopamine receptor (Rattus norvegicus, UniProt P18901)
[9] = target: Glutamate receptor ionotropic, kainate 1 (Rattus norvegicus, UniProt P22756)
[10] = target: Adenosine receptor A1 (Rattus norvegicus, UniProt P25099)
[11] = target: Substance-K receptor (Rattus norvegicus, UniProt P16610)
[12] = target: Alpha-2A adrenergic receptor (Homo sapiens, UniProt P08913)
[13] = target: Sodium channel protein type 2 subunit alpha (Rattus norvegicus, UniProt P04775)
[14] = target: 5-hydroxytryptamine receptor 1A (Homo sapiens, UniProt P08908)
[15] = target: Nitric oxide synthase, brain (Rattus norvegicus, UniProt P29476)
[16] = target: Adenosine receptor A2b (Bos taurus, UniProt Q1LZD0)
[17] = target: Sodium channel protein type 1 subunit alpha (Rattus norvegicus, UniProt P04774)
[18] = target: Phosphatidylinositol 3,4,5-trisphosphate 5-phosphatase 2 (Rattus norvegicus, UniProt Q9WVR3)
[19] = target: Calcium-activated potassium channel subunit beta-1 (Rattus norvegicus, UniProt P97678)
[20] = target: Muscarinic acetylcholine receptor M2 (Homo sapiens, UniProt P08172)
[21] = target: 5-hydroxytryptamine receptor 1D (Homo sapiens, UniProt P28221)
[22] = target: Glycine receptor subunit alpha-1 (Rattus norvegicus, UniProt P07727)
[23] = target: 5-hydroxytryptamine receptor 6 (Homo sapiens, UniProt P50406)
[24] = target: Amine oxidase [flavin-containing] A (Rattus norvegicus, UniProt P21396)
[25] = target: Gamma-aminobutyric acid receptor subunit alpha-1 (Bos taurus, UniProt P08219)
[26] = target: D(2) dopamine receptor (Homo sapiens, UniProt P14416)
[27] = target: Mu-type opioid receptor (Rattus norvegicus, UniProt P33535)
[28] = target: Amine oxidase [flavin-containing] B (Rattus norvegicus, UniProt P19643)
[29] = target: ATP-sensitive inward rectifier potassium channel 1 (Rattus norvegicus, UniProt P35560)
[30] = target: Alpha-1B adrenergic receptor (Rattus norvegicus, UniProt P15823)
[31] = target: Alpha-1A adrenergic receptor (Homo sapiens, UniProt P35348)

Chain of Sigma non-opioid intracellular receptor 1 (Q60492 whole entry): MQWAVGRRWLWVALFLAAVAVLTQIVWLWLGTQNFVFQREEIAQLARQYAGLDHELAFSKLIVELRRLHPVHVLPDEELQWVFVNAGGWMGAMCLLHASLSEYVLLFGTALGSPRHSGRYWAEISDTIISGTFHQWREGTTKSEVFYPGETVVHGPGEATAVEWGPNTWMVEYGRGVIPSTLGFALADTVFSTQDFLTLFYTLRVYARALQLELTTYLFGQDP
Chain of Muscarinic acetylcholine receptor M2 (P08172 whole entry): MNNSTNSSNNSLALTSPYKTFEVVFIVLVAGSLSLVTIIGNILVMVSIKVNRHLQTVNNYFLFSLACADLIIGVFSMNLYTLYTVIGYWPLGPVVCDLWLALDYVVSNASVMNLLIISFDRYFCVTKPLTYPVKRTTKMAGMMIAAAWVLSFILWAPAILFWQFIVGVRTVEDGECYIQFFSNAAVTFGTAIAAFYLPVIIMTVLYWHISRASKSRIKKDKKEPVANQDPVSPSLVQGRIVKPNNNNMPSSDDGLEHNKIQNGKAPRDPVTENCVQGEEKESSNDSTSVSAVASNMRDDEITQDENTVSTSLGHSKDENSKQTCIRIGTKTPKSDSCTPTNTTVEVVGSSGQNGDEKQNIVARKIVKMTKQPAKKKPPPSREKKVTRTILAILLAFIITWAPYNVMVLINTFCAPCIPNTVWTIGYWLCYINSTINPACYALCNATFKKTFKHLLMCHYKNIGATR
Chain of Alpha-2A adrenergic receptor (P08913 whole entry): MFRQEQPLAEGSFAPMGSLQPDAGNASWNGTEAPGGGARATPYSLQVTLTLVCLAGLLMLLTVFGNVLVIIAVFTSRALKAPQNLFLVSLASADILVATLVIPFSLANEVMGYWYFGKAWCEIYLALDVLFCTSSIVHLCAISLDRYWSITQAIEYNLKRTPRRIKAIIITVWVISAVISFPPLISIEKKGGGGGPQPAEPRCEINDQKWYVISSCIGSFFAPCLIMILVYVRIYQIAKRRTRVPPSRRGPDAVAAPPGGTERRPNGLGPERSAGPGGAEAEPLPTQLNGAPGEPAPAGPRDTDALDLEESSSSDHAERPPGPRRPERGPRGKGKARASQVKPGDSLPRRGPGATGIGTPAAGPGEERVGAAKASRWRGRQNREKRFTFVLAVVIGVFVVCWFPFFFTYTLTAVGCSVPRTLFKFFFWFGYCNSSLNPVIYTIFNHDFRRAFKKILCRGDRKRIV
Chain of Nitric oxide synthase, brain (P29476 whole entry): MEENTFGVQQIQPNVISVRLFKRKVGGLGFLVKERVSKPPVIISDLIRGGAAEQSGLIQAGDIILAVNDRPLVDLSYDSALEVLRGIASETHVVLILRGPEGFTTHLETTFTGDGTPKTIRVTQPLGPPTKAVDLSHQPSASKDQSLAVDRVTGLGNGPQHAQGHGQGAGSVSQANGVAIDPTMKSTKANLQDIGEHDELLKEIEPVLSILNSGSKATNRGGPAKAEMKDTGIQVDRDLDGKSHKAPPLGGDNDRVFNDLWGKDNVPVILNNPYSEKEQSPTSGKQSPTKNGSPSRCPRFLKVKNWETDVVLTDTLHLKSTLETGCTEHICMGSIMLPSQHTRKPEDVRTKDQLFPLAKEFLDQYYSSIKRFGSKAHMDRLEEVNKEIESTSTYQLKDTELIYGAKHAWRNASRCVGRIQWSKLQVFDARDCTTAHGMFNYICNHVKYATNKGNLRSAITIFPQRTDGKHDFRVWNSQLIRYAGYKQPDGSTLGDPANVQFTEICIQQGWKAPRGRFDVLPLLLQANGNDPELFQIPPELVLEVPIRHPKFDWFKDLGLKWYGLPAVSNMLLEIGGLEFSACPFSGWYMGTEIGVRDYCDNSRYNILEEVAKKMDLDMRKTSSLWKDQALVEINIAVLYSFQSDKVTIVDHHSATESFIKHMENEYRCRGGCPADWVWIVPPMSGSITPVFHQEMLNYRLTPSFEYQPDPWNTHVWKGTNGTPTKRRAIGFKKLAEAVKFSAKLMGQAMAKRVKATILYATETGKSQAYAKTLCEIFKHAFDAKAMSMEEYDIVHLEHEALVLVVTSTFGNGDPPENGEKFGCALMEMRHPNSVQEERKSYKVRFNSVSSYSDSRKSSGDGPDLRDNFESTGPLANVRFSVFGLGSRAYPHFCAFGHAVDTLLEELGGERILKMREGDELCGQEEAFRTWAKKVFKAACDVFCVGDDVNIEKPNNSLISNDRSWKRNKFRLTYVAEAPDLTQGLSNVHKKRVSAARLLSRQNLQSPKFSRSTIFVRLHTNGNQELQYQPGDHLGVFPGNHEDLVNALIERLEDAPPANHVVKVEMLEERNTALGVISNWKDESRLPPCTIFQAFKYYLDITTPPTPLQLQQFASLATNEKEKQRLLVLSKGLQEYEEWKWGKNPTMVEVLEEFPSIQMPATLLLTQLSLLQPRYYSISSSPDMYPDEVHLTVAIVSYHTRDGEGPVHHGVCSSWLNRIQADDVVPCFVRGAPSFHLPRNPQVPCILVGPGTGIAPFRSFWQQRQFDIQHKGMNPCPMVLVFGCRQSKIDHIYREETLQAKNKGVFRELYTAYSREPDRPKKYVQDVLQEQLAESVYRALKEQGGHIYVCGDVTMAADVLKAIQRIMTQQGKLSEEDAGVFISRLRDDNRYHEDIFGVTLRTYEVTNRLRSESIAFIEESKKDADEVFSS
Chain of Glutamate receptor 3 (P19492 whole entry): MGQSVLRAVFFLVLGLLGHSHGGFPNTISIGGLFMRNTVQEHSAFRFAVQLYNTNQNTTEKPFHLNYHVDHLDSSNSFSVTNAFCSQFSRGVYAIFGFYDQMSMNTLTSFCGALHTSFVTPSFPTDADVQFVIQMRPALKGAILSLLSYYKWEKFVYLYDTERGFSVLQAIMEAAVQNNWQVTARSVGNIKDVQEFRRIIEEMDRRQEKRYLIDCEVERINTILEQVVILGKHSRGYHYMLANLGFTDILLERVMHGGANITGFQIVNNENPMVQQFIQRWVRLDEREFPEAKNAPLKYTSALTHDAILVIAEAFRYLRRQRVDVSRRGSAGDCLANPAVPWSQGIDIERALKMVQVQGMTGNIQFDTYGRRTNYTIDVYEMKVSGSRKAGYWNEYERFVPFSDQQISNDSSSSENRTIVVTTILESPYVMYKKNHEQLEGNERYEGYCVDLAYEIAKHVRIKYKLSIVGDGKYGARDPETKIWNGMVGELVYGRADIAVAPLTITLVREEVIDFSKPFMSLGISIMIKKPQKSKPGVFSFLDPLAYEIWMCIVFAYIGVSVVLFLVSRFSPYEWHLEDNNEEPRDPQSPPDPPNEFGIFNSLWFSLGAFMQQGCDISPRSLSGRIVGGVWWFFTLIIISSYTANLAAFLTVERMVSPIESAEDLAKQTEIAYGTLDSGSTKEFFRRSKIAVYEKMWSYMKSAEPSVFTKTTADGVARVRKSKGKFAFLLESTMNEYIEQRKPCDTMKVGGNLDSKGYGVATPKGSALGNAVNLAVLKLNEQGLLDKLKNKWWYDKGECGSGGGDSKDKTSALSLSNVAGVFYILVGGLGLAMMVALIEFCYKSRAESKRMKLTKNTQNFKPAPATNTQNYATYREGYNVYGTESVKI
Chain of Kappa-type opioid receptor (P41144 whole entry): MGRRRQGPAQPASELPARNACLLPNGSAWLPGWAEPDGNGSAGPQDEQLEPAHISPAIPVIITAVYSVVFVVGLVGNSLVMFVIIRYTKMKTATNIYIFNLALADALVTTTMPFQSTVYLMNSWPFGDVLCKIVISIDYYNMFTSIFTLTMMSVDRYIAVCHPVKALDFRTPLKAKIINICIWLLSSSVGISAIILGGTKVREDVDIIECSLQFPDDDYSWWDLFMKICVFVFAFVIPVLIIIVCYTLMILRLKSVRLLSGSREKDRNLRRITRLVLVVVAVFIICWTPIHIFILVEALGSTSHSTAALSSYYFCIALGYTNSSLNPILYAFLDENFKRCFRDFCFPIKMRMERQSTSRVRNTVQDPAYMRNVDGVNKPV
Chain of 5-hydroxytryptamine receptor 6 (P50406 whole entry): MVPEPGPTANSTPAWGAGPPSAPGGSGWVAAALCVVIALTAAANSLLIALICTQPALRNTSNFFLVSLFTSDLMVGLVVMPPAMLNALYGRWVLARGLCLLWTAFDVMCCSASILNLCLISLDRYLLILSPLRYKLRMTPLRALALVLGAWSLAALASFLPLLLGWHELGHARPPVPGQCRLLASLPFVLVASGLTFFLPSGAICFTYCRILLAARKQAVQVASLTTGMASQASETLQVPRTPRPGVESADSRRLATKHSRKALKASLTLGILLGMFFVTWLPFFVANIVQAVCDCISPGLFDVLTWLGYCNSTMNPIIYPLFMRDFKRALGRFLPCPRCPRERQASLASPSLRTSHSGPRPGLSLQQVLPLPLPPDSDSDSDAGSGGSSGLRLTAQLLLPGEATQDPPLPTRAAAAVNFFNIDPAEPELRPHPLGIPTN
Chain of Gastrin/cholecystokinin type B receptor (P56481 whole entry): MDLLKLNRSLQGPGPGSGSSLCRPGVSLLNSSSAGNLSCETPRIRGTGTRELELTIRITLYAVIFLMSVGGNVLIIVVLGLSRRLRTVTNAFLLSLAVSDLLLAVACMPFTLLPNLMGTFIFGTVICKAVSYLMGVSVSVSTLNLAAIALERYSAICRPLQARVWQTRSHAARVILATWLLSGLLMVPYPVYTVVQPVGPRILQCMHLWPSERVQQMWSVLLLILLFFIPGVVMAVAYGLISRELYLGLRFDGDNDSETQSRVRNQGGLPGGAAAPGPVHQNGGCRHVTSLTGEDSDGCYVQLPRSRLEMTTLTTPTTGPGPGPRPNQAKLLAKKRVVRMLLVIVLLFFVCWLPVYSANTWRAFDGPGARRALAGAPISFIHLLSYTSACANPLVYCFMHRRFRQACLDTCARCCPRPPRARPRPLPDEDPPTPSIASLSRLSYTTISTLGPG
Chain of Calcium-activated potassium channel subunit beta-1 (P97678 whole entry): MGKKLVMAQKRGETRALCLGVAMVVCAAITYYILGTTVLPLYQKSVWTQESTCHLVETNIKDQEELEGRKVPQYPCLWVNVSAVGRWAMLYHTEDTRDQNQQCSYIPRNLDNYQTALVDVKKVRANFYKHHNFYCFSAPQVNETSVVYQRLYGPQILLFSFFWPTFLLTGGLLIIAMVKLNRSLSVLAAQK

SMILES	Ki [1] [nM]	Ki [2] [nM]	Ki [3] [nM]	Ki [4] [nM]	Ki [5] [nM]	Ki [6] [nM]	Ki [7] [nM]	Ki [8] [nM]	Ki [9] [nM]	Ki [10] [nM]	Ki [11] [nM]	Ki [12]	Ki [13] [nM]	Ki [14] [nM]	Ki [15] [nM]	Ki [16] [nM]	Ki [17] [nM]	Ki [18] [nM]	Ki [19] [nM]	Ki [20]	also measured
CNCC[C@H](Oc1cccc2ccccc12)c1cccs1 [DULOXETINE]	> 1000	1000	> 1000	1000	1000	> 1000	1000	1000	1000	> 1000	1000	8600 nM and 1000 nM	> 1000	5000	1000	1000	> 1000	1000	1000	3000 nM and 1000 nM	Ki [21]: 3000 nM; Ki [22]: 1000 nM; Ki [23]: 419 nM; Ki [24]: > 10000 nM; Ki [25]: > 1000 nM; Ki [26]: > 10000 nM; Ki [27]: 1000 nM; Ki [28]: > 10000 nM; Ki [29]: > 1000 nM; Ki [30]: > 1000 nM
COc1ccc(C(CN(C)C)C2(O)CCCCC2)cc1 (stereo unspecified) [NSC_62923]	> 1000	1000	> 1000	1000	1000	> 1000	1000	1000	1000	> 1000	1000	> 10000 nM and 1000 nM	> 1000	> 10000	1000	1000	> 1000	1000	1000	> 10000 nM and 1000 nM	Ki [31]: > 10000 nM; Ki [21]: > 10000 nM; Ki [22]: 1000 nM; Ki [23]: 2790 nM; Ki [24]: > 10000 nM; Ki [25]: > 1000 nM; Ki [26]: > 10000 nM; Ki [27]: 1000 nM; Ki [28]: > 10000 nM; Ki [29]: > 1000 nM; Ki [30]: > 1000 nM
